Experimental data taken from patent US10221163B2 (priority 2015, dated 2019).
Where two headings read alike, the source gives them in different places.

Experiments:
IMP-1 = IMP-1 (Serratia marcescens, UniProt P52699); test: biochemical; format: biochemical; conditions: fluorescence assay, CCF2-FA substrate, 2 pM enzyme, 2 hours at 25° C.; read-out: IMP-1 IC50
Procedure, shortened: (§1)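 Semi-log dose-response curves, fitted with a 4-parameter model, gave IC50s. The underlying signal was CCF2-FA fluorescence following 2 hours at 25° C with enzyme, substrate and inhibitor combined.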

NDM-1 = NDM-1 (Klebsiella pneumoniae, UniProt C7C422); test: biochemical; format: biochemical; conditions: fluorescence assay, CCF2-FA substrate, 1 pM enzyme, 2 hours at 25° C.; read-out: NDM-1 IC50
Procedure, shortened: as §1

VIM-1 = VIM-1 (Pseudomonas aeruginosa (strain ATCC 15692 / DSM 22644 / CIP 104116 / JCM 14847 / LMG 12228 / 1C / PRS 101 / PAO1), UniProt A0A0F7KYQ8); test: biochemical; conditions: CCF2-FA substrate, 30 pM enzyme, 2 hours at 25° C.
Procedure, shortened: as §1

[1] = test system: Escherichia coli expressing NDM-1 (CLB30005, CLB30016); format: cell-based; conditions: with imipenem 1 μg/ml; for Escherichia coli MITC95: NDM-1 strain, 95% inhibition of growth; for Escherichia coli expressing NDM-1 (CLB30016) MITC95: 95% inhibition of bacterial growth
Procedure, shortened: (§2)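 Clinical strains grown overnight on blood agar at 35°C, colonies suspended in saline, diluted 1:100 into 1.1×CAMHB. Test compound titrated with imipenem at 1 μg/ml; incubated 22–24 h at 35°C, growth read by absorbance.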

[2] = test system: Klebsiella pneumoniae expressing VIM-1 (IHMA599644); format: cell-based; conditions: for Klebsiella pneumoniae MITC95: VIM-1 strain IHMA599644, with imipenem 1 μg/ml, 95% inhibition of growth; for Klebsiella pneumoniae expressing VIM-1 (IHMA599644) MITC95: with imipenem 1 μg/ml, 95% inhibition of bacterial growth
Procedure, shortened: as §2

[3] = test system: Serratia marcescens expressing IMP-1 (CL5741); format: cell-based; conditions: for Serratia marcescens MITC95: IMP-1 strain CL5741, with imipenem 1 μg/ml, 95% inhibition of growth; for Serratia marcescens expressing IMP-1 (CL5741) MITC95: with imipenem 1 μg/ml, 95% inhibition of bacterial growth
Procedure, shortened: as §2

[4] = test system: Pseudomonas aeruginosa efflux+ (MB9798), IMP-1; format: cell-based; parameters: Concentration of metallo-β-lactamase inhibitor which restores susceptibility of efflux + (MB9798) strain to imipenem: unit not given here; conditions: C, D serine β-lactamase inhibitor closely related to relebactam; for P. aeruginosa expressing IMP-1, efflux + (MB9798) MITC95: concentration restoring susceptibility to imipenem at 2 μg/mL in the presence of a class A
Procedure, shortened: (§3)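 Microbroth MIC tests in PAO1-background strains with fixed imipenem and/or ceftazidime, usually at the CLSI breakpoint, plus fixed class A/C β-lactamase inhibitor against AmpC. MBL inhibitor titrated; concentration restoring susceptibility recorded and compared as fold difference between efflux+ MB9798 and efflux− MB9799.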

[5] = test system: Pseudomonas aeruginosa efflux− (MB9799), IMP-1; format: cell-based; conditions: C, D serine β-lactamase inhibitor closely related to relebactam; for P. aeruginosa expressing IMP-1, efflux − (MB9799) MITC95: concentration restoring susceptibility to imipenem at 2 μg/mL in the presence of a class A
Procedure, shortened: as §3

[6] = test system: Pseudomonas aeruginosa MB9798 vs MB9799
Procedure, shortened: as §3

[7] = ratio MITC95 PA_9798/MITC95 PA_9799
[8] = fluorescence assay, read-out: VIM-1 IC50

NDM-1, sequence (C7C422 whole entry, looked up, species assumed): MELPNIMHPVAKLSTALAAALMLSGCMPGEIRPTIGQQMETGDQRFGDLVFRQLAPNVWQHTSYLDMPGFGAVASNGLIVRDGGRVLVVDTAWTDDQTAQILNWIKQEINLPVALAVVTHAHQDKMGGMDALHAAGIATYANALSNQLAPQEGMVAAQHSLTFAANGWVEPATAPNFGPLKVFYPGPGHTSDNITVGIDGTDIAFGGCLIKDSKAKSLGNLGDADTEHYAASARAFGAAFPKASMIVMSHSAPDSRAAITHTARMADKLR
IMP-1, sequence (P52699 whole entry, looked up, species assumed): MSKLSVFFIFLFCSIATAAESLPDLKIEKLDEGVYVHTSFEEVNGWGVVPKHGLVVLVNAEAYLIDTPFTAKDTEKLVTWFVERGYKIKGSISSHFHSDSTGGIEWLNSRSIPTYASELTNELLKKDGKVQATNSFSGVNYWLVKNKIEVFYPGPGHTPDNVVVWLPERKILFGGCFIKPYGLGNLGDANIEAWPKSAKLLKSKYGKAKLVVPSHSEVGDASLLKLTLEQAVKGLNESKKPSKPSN

Compound	IC50 (IMP-1) [pM]	IC50 (NDM-1) [pM]	IC50 (VIM-1; VIM-1 IC50, fluorescence assay) [pM]	Escherichia coli MITC95 [1] [µM]	Klebsiella pneumoniae MITC95 [2] [µM]	Serratia marcescens MITC95 [3] [µM]	P. aeruginosa expressing IMP-1, efflux + (MB9798) MITC95 [4] [µM]	P. aeruginosa expressing IMP-1, efflux − (MB9799) MITC95 [5] [µM]	Efflux ratio [6, 7]	Escherichia coli expressing NDM-1 (CLB30016) MITC95 [1] [µM]	Klebsiella pneumoniae expressing VIM-1 (IHMA599644) MITC95 [2] [µM]	Serratia marcescens expressing IMP-1 (CL5741) MITC95 [3] [µM]	IC50 (VIM-1; [8]) [pM]	Concentration of metallo-β-lactamase inhibitor which restores susceptibility of efflux + (MB9798) strain to imipenem ([4]; efflux+ MB9798, imipenem at 2 μg/mL, in the presence of a class A)	Concentration of metallo-β-lactamase inhibitor which restores susceptibility of efflux − (MB9799) strain to imipenem ([5]; efflux− MB9799, imipenem at 2 μg/mL, in the presence of a class A)	Efflux ratio ([6]; fold difference between efflux+ (MB9798) and efflux− (MB9799) strains, imipenem at 2 μg/mL)
NCc1ncc(-c2cccc(-c3ccc(S(=O)(=O)N[C@@H]4CCNC4)c(S(N)(=O)=O)c3-c3nn[nH]n3)c2)[nH]1 [Example 278, (R)-3′-(2-(aminomethyl)-1H-imidazol-5-yl)-N4-(pyrrolidin-3-yl)-2-(2H-tetrazol-5-yl)-[1,1′-biphenyl]-3,4-disulfonamide]	640	56.6	144	0.7813	0.7813	0.7813	0.7813	0.7813	1.00							
C[C@H](CN)NS(=O)(=O)c1ccc(-c2cccc3[nH]c(N)nc23)c(-c2nn[nH]n2)c1S(N)(=O)=O [Example 187, 4-(2-amino-1H-benzo[d]imidazol-4-yl)-N^1—((R)-1-aminopropan-2-yl)-3-(2H-tetrazol-5-yl)benzene-1,2-disulfonamide]	230	21.2	98.2				0.3906	0.7813	0.50	0.5859	1.172	0.7813				
CC(C)(CN)NS(=O)(=O)c1ccc(-c2cccnc2N)c(-c2nn[nH]n2)c1S(N)(=O)=O [Example 211, N1-(1-amino-2-methylpropan-2-yl)-4-(2-aminopyridin-3-yl)-3-(2H-tetrazol-5-yl)benzene-1,2-disulfonamide]	2250	156					12.5	3.125	4.00	1.563	6.25	3.125	182			
CN(C1CNC1)S(=O)(=O)c1ccc(-c2cccc3sc(N)nc23)c(-c2nnn[nH]2)c1S(N)(=O)=O.O=C(O)C(F)(F)F [Example 105, 3-(4-(2-aminobenzo[d]thiazol-4-yl)-N-methyl-2-sulfamoyl-3-(1H-tetrazol-5-yl)phenylsulfonamido)azetidin-1-ium 2,2,2-trifluoroacetate]	1180	206	1140				1.563	1.563	1.00	1.563	6.25	1.563				
NCCNS(=O)(=O)c1ccc(C2CCC[C@H](N)C2)c(-c2nn[nH]n2)c1S(N)(=O)=O (stereo partly drawn) [Example 342, 4-((3S)-3-aminocyclohexyl)-N1-(2-aminoethyl)-3-(2H-tetrazol-5-yl)benzene-1,2-disulfonamide]	88700	32700	5310	1.563	1.563	3.125	25	6.25	4.00							
NCCNS(=O)(=O)c1ccc(-c2cc(F)cc3[nH]c(N)nc23)c(-c2nnn[nH]2)c1S(N)(=O)=O [Example 180, 4-(2-amino-6-fluoro-1H-benzo[d]imidazol-4-yl)-N^1-(2-aminoethyl)-3-(1H-tetrazol-5-yl)benzene-1,2-disulfonamide]	387	47.2					0.3906	0.7813	0.50	0.3906	1.563	0.7813	161			
Nc1nc2c(-c3ccc(S(=O)(=O)NC[C@@H](N)CO)c(S(N)(=O)=O)c3-c3nn[nH]n3)cccc2[nH]1 [Example 190, 4-(2-amino-1H-benzo[d]imidazol-4-yl)-N1-((R)-2-amino-3-hydroxypropyl)-3-(2H-tetrazol-5-yl)benzene-1,2-disulfonamide]	624	59					0.3906	0.7813	0.50	0.3906	0.7813	0.3906	281			
C[C@H](CN)NS(=O)(=O)c1ccc(-c2cccc3c2nc(N)n3C)c(-c2nn[nH]n2)c1S(N)(=O)=O [Example 395]	156	31.5	108	0.3906	1.563	1.563								1.563	0.7813	2.00
Nc1ccc(-c2ccc(S(=O)(=O)NC[C@H](N)CO)c(S(N)(=O)=O)c2-c2nn[nH]n2)cn1 [Example 297, (S)—N^1-(2-amino-3-hydroxypropyl)-4-(6-aminopyridin-3-yl)-3-(2H -tetrazol-5-yl) benzene-1,2-disulfonamide]	569	331		0.3906	1.563	0.7813	0.7813	0.7813	1.00				423			
Nc1nc2c(-c3ccc(S(=O)(=O)N4CCC(N)(CO)C4)c(S(N)(=O)=O)c3-c3nnn[nH]3)cccc2s1 (stereo not drawn) [Example 55, 3-(2-amino-1,3-benzothiazol-4-yl)-6-{[3-amino-3-(hydroxymethyl)pyrrolidin-1-yl]sulfonyl}-2-(1H-tetrazol-5-yl)benzenesulfonamide]	860	510					3.125	3.125	1.00	3.125	6.25	3.125	1460			
